The source of these data is patent publication US8258151B2, “3-aminoimidazo [1,2-A] pyridine derivatives as SGLT inhibitors” (Merck Patent GmbH, priority 2006, dated 2012).

What is called IC50 is the concentration needed to halve the response being measured. Low values mean greater potency in that assay, high ones weaker potency in that assay.

One experiment concerns the target T1, SGLT1 (Homo sapiens, UniProt P13866).
T1 construct: expressed in transfected cells
T1 sequence (P13866 1-664): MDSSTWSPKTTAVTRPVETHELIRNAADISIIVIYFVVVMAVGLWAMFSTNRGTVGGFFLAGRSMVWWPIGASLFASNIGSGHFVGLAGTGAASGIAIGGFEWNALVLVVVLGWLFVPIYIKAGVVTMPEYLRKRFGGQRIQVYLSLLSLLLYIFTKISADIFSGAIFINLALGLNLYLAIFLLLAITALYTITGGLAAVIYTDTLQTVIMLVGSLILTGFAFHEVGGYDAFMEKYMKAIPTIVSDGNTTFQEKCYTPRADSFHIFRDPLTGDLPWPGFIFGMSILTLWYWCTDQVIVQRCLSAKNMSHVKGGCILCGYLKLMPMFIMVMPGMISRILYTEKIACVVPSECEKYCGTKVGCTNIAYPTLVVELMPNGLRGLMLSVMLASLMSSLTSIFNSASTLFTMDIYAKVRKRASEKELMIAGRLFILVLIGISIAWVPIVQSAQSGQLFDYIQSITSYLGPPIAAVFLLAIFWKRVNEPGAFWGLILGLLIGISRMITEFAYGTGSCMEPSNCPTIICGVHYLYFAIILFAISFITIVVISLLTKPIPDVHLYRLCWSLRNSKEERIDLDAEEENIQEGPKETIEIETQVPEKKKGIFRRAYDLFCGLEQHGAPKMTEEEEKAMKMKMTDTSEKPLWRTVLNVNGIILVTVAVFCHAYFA
Kind of experiment: SGLT1 activity measurement: 14C-AMG uptake in BHK cells transfected with SGLT1. The experiment is classed as cell-based. To be noted: AMG 50 μM, 37° C., 90 min. An excerpt: (§1) The compounds can be tested on their SGLT inhibition properties by means of BHK cells expressing SGLT1 and SGLT2. The production of the cells and the testing can be carried out as described below.
To construct the SGLT1 expression vector (KL225), the SLC5A1 gene (homologous to NM_000343) was amplified from a cDNA library using standard PCR technology and cloned over NheI/XhoI sites into pcDNA3.1 expression vector (Invitrogen) containing neomycin as a selection marker. In this vector, transcription uses the enhancer/promoter of human cytomegalovirus.
The final vector KL225 together with an additional vector containing a dihydrofolate reductase gene as a selection marker was introduced into cells. Transfection into BHK21 cells (ATCC CCL-10), cultivated in DMEM medium (GIBCO/BRL), supplemented with 10% foetal calf serum (FCS) and 20 mM glutamine, was carried out using calcium phosphate transfections according to Graham, F. L. and van der Ebb, A. J. (1973), Virology 52: 456 with 5-20 μg of uncut plasmids for 10^7 cells. Stable transfectants were selected in medium containing 1 mg/ml of G418 (GIBCO/BRL) and 20-5000 nM methotrexate as final concentration, where only cells which expressed the neomycin gene and overexpressed the dhfr gene were able to grow. After growth for 2-3 weeks, the cells were cloned (0.5 cells/well) and the clones were investigated for SGLT expression in the radioactive uptake assay. […]
(§2) A 96-well cell-based assay was developed and adapted to HTS requirements:
(§3) BHK cells (transfected with SGLT1 or SGLT2) were seeded into 96-well microtitre plates (Cultureplates, Perkin Elmer). After at least 24 h, medium was removed and the cell layer was washed with assay buffer (140 mM NaCl, 2 mM KCl, 1 mM CaCl2, 1 mM MgCl2, 10 mM HEPES, 5 mM Tris, adjusted with 1 M KOH to pH 7.4). After addition of 40 μl of assay buffer, 50 μl of AMG (50 μM for SGLT1 and 2 mM for SGLT2) in the presence or absence of compounds, the cells were incubated in a total volume of 100 μl at 37° C. for 90 min. Supernatant was removed by suction and discarded. The cells were washed and lysed by addition of 50 μl water. After 10 minutes at room temperature 200 μl Microscint 40 (Perkin Elmer) were added. The radioactivity was counted in a Topcount microplate scintillation counter (Perkin Elmer). The non-specific uptake was determined in sodium-free assay buffer (266 mM sucrose, 2 mM KCl, 1 mM CaCl2, 1 mM MgCl2, 10 mM HEPES, 5 mM Tris, adjusted with 1 M KOH to pH 7.4).

A further experiment deals with T2, SGLT2 (Homo sapiens, UniProt P31639).
T2 construct: expressed in transfected cells
T2 sequence (P31639 1-672): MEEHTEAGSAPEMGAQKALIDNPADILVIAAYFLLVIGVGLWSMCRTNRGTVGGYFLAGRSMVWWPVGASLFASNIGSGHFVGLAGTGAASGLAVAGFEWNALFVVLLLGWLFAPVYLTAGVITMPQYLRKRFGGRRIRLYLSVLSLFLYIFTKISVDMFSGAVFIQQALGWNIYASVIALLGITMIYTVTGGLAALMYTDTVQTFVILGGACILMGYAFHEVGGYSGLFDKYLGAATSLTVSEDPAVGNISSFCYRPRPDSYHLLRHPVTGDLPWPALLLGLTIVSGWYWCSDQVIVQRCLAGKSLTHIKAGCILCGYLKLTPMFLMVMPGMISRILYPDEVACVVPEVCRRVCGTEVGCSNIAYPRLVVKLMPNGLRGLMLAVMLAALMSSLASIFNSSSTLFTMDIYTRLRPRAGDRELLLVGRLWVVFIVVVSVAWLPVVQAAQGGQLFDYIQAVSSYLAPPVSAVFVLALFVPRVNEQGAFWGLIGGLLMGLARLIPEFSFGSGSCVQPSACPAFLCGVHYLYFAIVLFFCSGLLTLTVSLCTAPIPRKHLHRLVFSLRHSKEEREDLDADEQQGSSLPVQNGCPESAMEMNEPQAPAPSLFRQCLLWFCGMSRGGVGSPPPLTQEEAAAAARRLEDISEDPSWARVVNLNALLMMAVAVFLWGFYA
Kind of experiment: SGLT2 activity measurement: 14C-AMG uptake in BHK cells transfected with SGLT2. The experiment is classed as cell-based. To be noted: AMG 2 mM, 37° C., 90 min.
Description: as §1
To construct the SGLT2 expression vector (KL224), the SLC5A2 gene (homologous to NM_003041) was amplified from a cDNA library using standard PCR technology and cloned over NheI/XhoI sites into PCI-neo expression vector (Promega) containing neomycin as a selection marker. In this vector, transcription used the enhancer/promoter of human cytomegalovirus and the SV40 polyadenylation signal.
The final vector KL224 together with an additional vector containing a dihydrofolate reductase gene as a selection marker was introduced into cells. Transfection into BHK21 cells (ATCC CCL-10), cultivated in DMEM medium (GIBCO/BRL), supplemented with 10% foetal calf serum (FCS) and 20 mM glutamine, was carried out using calcium phosphate transfections according to Graham, F. L. and van der Ebb, A. J. (1973), Virology 52: 456 with 5-20 μg of uncut plasmids for 10^7 cells. Stable transfectants were selected in medium containing 1 mg/ml of G418 (GIBCO/BRL) and 20-5000 nM methotrexate as final concentration, where only cells which expressed the neomycin gene and overexpressed the dhfr gene were able to grow. After growth for 2-3 weeks, the cells were cloned (0.5 cells/well) and the clones were investigated for SGLT expression in the radioactive uptake assay.
Principally, uptake of ^14C-α-methyl-D-glucopyranoside (AMG) in, for example, Xenopus oocytes injected with the corresponding cRNA has been described (for example Wen-Sen Lee et al. (1994), J. Biol. Chem. 269, 12032-12039; Guofeng You et al. (1995), J. Biol. Chem. 270, 29365-29371).
as §2, §3

As for `Cc1cccc(C)c1Nc1c(-c2c(O)cccc2OCC(N)=O)nc2ccc(F)cn12` [Compound A175, 2-[2-(Aminocarbonylmethoxy)-6-hydroxyphenyl]-3-(2,6-dimethylphenylamino)-6-fluoroimidazo-[1,2-a]pyridine], the figures for the IC50 against SGLT1 and at SGLT2 were > 10000 nM and 10 to 1000 nM, respectively.

For `Cc1cccc(C)c1Nc1c(-c2c(O)cccc2OCC(N)=O)nc2ccccn12` [Compound A176, 2-[2-(Aminocarbonylmethoxy)-6-hydroxyphenyl]-3-(2,6-dimethylphenylamino)imidazo[1,2-a]-pyridine], the IC50 against SGLT1 was > 10000 nM; against SGLT2, 1000 to 10000 nM.

In the case of `Cc1cccc(C)c1Nc1c(-c2c(C)cc(OC3CCCCO3)cc2OCC(N)=O)nc2ccc(F)cn12` (stereo not shown) [Compound A177, 2-[2-(Aminocarbonylmethoxy)-4-(tetra-hydropyran-2-yloxy)-6-methylphenyl]-3-(2,6-dimethylphenylamino)-6-fluoroimidazo[1,2-a]-pyridine], the values for the IC50 against SGLT1 and against SGLT2 were > 10000 nM and 10 to 1000 nM, respectively.

With `Cc1cccc(C)c1Nc1c(-c2c(C)cc(OCC(N)=O)cc2OCC(N)=O)nc2ccc(F)cn12` [Compound A178, 2-[2-(Aminocarbonylmethoxy)-4-(amino-carbonylmethoxy)-6-methylphenyl]-3-(2,6-dimethylphenylamino)-6-fluoroimidazo[1,2-a]-pyridine], the results for the IC50 at SGLT1 and on SGLT2 were > 10000 nM and 10 to 1000 nM, respectively.

On to `Cc1cccc(C)c1Nc1c(-c2ccc([N+](=O)[O-])cc2OCC(N)=O)nc2ccccn12` [Compound A179, 2-[2-(Aminocarbonylmethoxy)-4-nitrophenyl]-3-(2,6-dimethylphenylamino)imidazo[1,2-a]pyridine], for which the IC50 is > 10000 nM at SGLT1 and 10 to 1000 nM at SGLT2.

As to `Cc1cccc(C)c1Nc1c(-c2c(OCC(N)=O)ccc3ccccc23)nc2ccc(F)cn12` [Compound A180, 2-{1-[3-(2,6-Dimethylphenylamino)-6-fluoro-imidazo[1,2-a]pyridin-2-yl]naphthalen-2-yloxy}-acetamide], the IC50 was in the range of 1000 to 10000 nM against SGLT1 and 10 to 1000 nM against SGLT2.

Regarding `Cc1cccc(C)c1Nc1c(-c2c(OCC(N)=O)ccc3ccccc23)nc2ccccn12` [Compound A181, 2-{1-[3-(2,6-Dimethylphenylamino)imidazo-[1,2-a]pyridin-2-yl]naphthalen-2-yloxy}acetamide], the IC50 on SGLT1 lay within 1000 to 10000 nM; on SGLT2, 10 to 1000 nM.

In the case of `CCc1cc(OC2CCCCO2)cc(OCC(N)=O)c1-c1nc2ccc(F)cn2c1Nc1c(C)cccc1C` (stereo not shown) [Compound A182, 2-[2-(Aminocarbonylmethoxy)-4-(tetra-hydropyran-2-yloxy)-6-ethylphenyl]-3-(2,6-dimethylphenylamino)-6-fluoroimidazo[1,2-a]-pyridine], the values for the IC50 against SGLT1 and against SGLT2 were > 10000 nM and 10 to 1000 nM, respectively.

On to `COC(=O)Cc1ccc(OCC(N)=O)c(-c2nc3ccccn3c2Nc2c(C)cccc2C)c1` [Compound A183, 2-[2-(Aminocarbonylmethoxy)-5-(methoxycarbonylmethyl)phenyl]-3-(2,6-dimethylphenylamino)imidazo[1,2-a]pyridine], for which the IC50 against SGLT1 was > 10000 nM; at SGLT2, 1000 to 10000 nM.

As to `COCCOc1cc(C)c(-c2nc3ccc(F)cn3c2Nc2c(C)cccc2C)c(OCC(N)=O)c1` [Compound A184, 2-[2-(Aminocarbonylmethoxy)-4-(2-methoxy-ethoxy)-6-methylphenyl]-3-(2,6-dimethylphenyl-amino)-6-fluoroimidazo[1,2-a]pyridine], the IC50 against SGLT1 is > 10000 nM; on SGLT2, 10 to 1000 nM.

Take `CCc1cc(OC)cc(OCC(N)=O)c1-c1nc2ccc(F)cn2c1Nc1c(C)cccc1C` [Compound A185, 2-[2-(Aminocarbonylmethoxy)-4-methoxy-6-ethylphenyl]-3-(2,6-dimethylphenylamino)-6-fluoroimidazo[1,2-a]pyridine]: the IC50 fell in the range of 1000 to 10000 nM against SGLT1 and 10 to 1000 nM at SGLT2.

As to `Cc1cccc(C)c1Nc1c(-c2c(C)cc(OCCO)cc2OCC(N)=O)nc2ccc(F)cn12` [Compound A186, 2-[2-(Aminocarbonylmethoxy)-4-(2-hydroxy-ethoxy)-6-methylphenyl]-3-(2,6-dimethylphenyl-amino)-6-fluoroimidazo[1,2-a]pyridine], the IC50 against SGLT1 is > 10000 nM; on SGLT2, 10 to 1000 nM.

For `CCc1cc(OCCOC)cc(OCC(N)=O)c1-c1nc2ccc(F)cn2c1Nc1c(C)cccc1C` [Compound A187, 2-[2-(Aminocarbonylmethoxy)-4-(2-methoxy-ethoxy)-6-ethylphenyl]-3-(2,6-dimethylphenyl-amino)-6-fluoroimidazo[1,2-a]pyridine], the values for the 50% inhibitory concentration (IC50) at SGLT1 and at SGLT2 were > 10000 nM and 10 to 1000 nM, respectively.

`COc1ccc(-c2nc3ccc(F)cn3c2Nc2c(C)cccc2C)c(OCC(N)=O)c1OC` [Compound A188, 2-[2-(Aminocarbonylmethoxy)-3,4-dimethoxy-phenyl]-3-(2,6-dimethylphenylamino)-6-fluoro-imidazo[1,2-a]pyridine]: the IC50 was > 10000 nM on SGLT1 and 1000 to 10000 nM on SGLT2.
